# Assay results: PMC6783499, “Heteroglycoclusters With Dual Nanomolar Affinities for the Lectins LecA and LecB From Pseudomonas aeruginosa” (Frontiers in Chemistry, 2019)
# Experiments:
# [1] = target: T1, LecA (Pseudomonas aeruginosa, UniProt Q05097); experiment: biochemical; format: binding; conditions: for –ΔH (binding enthalpy) / n (stoichiometry, glycocluster molecules per lectin monomer) / –ΔG / –ΔH / −TΔS / binding to LecA in words / α (relative potency compared to the monovalent compound) / β (relative potency per sugar unit): LecA; for –ΔH (binding enthalpy) / n (stoichiometry, glycocluster molecules per lectin monomer) / –ΔG / –ΔH / −TΔS: ITC; for n (stoichiometry, glycocluster molecules per lectin monomer) / –ΔG / –ΔH / −TΔS: 25°C; for n (stoichiometry, glycocluster molecules per lectin monomer): pH 7.5; for –ΔG / –ΔH / −TΔS: per mole of glycocluster; for binding to LecA in words: abstract; for α (relative potency compared to the monovalent compound) / β (relative potency per sugar unit): relative to βGal-OMe
# T1 construct: made in house; host or cells: Escherichia coli BL21(DE3)
# Procedure: (§1) The resulting hGCs were tested in solution with lectins by Isothermal Titration Calorimetry (Table 1) and their binding properties were compared with homoclusters 15–20 (Berthet et al., [2013]; Thomas et al., [2015b]) displaying either 4 and 16 βGal or αFuc units attached with an oxime or a triazole linker (Figure 3). […] Experiments were performed in direct injection mode (i.e., ligand in syringe and protein in cell) to minimize aggregation problems.
# (§2) All chemical reagents were purchased from Aldrich (Saint Quentin Fallavier, France) or Acros (Noisy-Le-Grand, France). All protected amino acids and Fmoc-Gly-Sasrin® resin was obtained from Advanced ChemTech Europe (Brussels, Belgium). For peptides and glycopeptides, analytical RP-HPLC was performed on Waters system equipped with a Waters 2695 separations module and a Waters 2487 Dual Absorbance UV/Visible Detector. Analysis was carried out at 1.0 mL/min (EC 125/3 nucleosil 300-5 C18) with UV monitoring at 214 nm and 250 nm using a linear A–B gradient (buffer A: 0.09% CF3CO2H in water; buffer B: 0.09% CF3CO2H in 90% acetonitrile). Purifications were carried out at 22.0 mL/min (VP 250/21 nucleosil 100-7 C18) with UV monitoring at 214 nm and 250 nm using a linear A–B gradient. HRMS and ESI-MS and HRMS spectra of peptides and glycopeptides were measured on an Esquire 3000 spectrometer from Bruker. Lectins LecA and LecB were produced in recombinant form in Escherichia coli BL21(DE3) as described previously (Mitchell et al., [2005]; Blanchard et al., [2008]).
# Other compounds were assayed with a VP-ITC isothermal titration calorimeter (Microcal). The experiments were carried out at 25°C. All glycocompounds and lectins LecB and LecA were dissolved in the same buffer composed of 20 mM Tris with 100 mM NaCl and 0.1 mM CaCl2 at pH 7.5. For PEAQ-ITC, the lectins were placed in the microcalorimeter cell (200 μL) at concentrations varying from 35 to 70 μM. […] For VP-ITC, the microcalorimeter cell (1.447 mL) contained the lectins with concentrations between 30 and 100 μM. […] The experimental data were fitted to a theoretical titration curve using the Microcal PEAQ-ITC analysis software, with ΔH (enthalpy change), Ka (association constant), and N (number of binding sites per monomer) as adjustable parameters. Dissociation constant (Kd), free energy change (ΔG), and entropy contributions (TΔS) were derived from the previous ones. Two or three independent titrations were performed for each ligand tested.
# [2] = target: T2, LecB (Pseudomonas aeruginosa, UniProt Q9HYN5); experiment: biochemical; format: binding; conditions: for n (stoichiometry, glycocluster molecules per lectin monomer) / –ΔG / –ΔH / −TΔS / Kd: 25°C; for n (stoichiometry, glycocluster molecules per lectin monomer): pH 7.5; for –ΔG / –ΔH / −TΔS: per mole of glycocluster; for Kd: 20 mM Tris, 100 mM NaCl, 0.1 mM CaCl2, pH 7.5, ligand in syringe; for binding to LecB in words: abstract
# T2 construct: made in house; host or cells: Escherichia coli BL21(DE3)
# Procedure: as §1, §2
# Other compounds were assayed with a VP-ITC isothermal titration calorimeter (Microcal). The experiments were carried out at 25°C. All glycocompounds and lectins LecB and LecA were dissolved in the same buffer composed of 20 mM Tris with 100 mM NaCl and 0.1 mM CaCl2 at pH 7.5. For PEAQ-ITC, the lectins were placed in the microcalorimeter cell (200 μL) at concentrations varying from 35 to 70 μM. […] For VP-ITC, the microcalorimeter cell (1.447 mL) contained the lectins with concentrations between 30 and 100 μM. A total of 30 injections of 10 μL were performed intervals of 5 min while stirring at 310 rpm with glycoclusters concentrations varying from […]. The experimental data were fitted to a theoretical titration curve using the Microcal PEAQ-ITC analysis software, with ΔH (enthalpy change), Ka (association constant), and N (number of binding sites per monomer) as adjustable parameters. Dissociation constant (Kd), free energy change (ΔG), and entropy contributions (TΔS) were derived from the previous ones. Two or three independent titrations were performed for each ligand tested.
# T1 sequence (Q05097 whole entry): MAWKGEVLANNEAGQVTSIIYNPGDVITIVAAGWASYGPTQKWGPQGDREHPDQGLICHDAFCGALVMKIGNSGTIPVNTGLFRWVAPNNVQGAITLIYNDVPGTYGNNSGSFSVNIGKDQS
# T2 sequence (Q9HYN5 entry or part of it): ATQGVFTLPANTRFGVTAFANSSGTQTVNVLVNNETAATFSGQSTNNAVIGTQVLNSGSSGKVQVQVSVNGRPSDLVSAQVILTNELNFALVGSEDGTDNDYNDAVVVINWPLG
smiles,measurement,setting,value
C[C@@H]1NC(=O)[C@H](CCCCNC(=O)/C=N/O[C@@H]2O[C@@H](C)[C@@H](O)[C@@H](O)[C@@H]2O)NC(=O)CNC(=O)[C@@H]2CCCN2C(=O)[C@H](CCCCNC(=O)/C=N/O[C@@H]2O[C@@H](C)[C@@H](O)[C@@H](O)[C@@H]2O)NC(=O)[C@H](CCCCNC(=O)CO/N=C/C(=O)NCCCC[C@@H]2NC(=O)CNC(=O)[C@@H]3CCCN3C(=O)[C@H](CCCCNC(=O)/C=N/OCC(=O)NCCCC[C@@H]3NC(=O)[C@H](CCCCNC(=O)/C=N/O[C@@H]4O[C@@H](C)[C@@H](O)[C@@H](O)[C@@H]4O)NC(=O)CNC(=O)[C@@H]4CCCN4C(=O)[C@H](CCCCNC(=O)/C=N/O[C@@H]4O[C@@H](C)[C@@H](O)[C@@H](O)[C@@H]4O)NC(=O)[C@H](C)NC(=O)[C@H](CCCCNC(=O)/C=N/O[C@@H]4O[C@@H](C)[C@@H](O)[C@@H](O)[C@@H]4O)NC(=O)CNC(=O)[C@@H]4CCCN4C(=O)[C@H](CCCCNC(=O)/C=N/O[C@@H]4O[C@@H](C)[C@@H](O)[C@@H](O)[C@@H]4O)NC3=O)NC(=O)[C@H](CCCCN)NC(=O)[C@H](CCCCNC(=O)CO/N=C/C(=O)NCCCC[C@@H]3NC(=O)[C@H](CCCCn4cc(CO[C@@H]5O[C@H](CO)[C@H](O)[C@H](O)[C@H]5O)nn4)NC(=O)CNC(=O)[C@@H]4CCCN4C(=O)[C@H](CCCCn4cc(CO[C@@H]5O[C@H](CO)[C@H](O)[C@H](O)[C@H]5O)nn4)NC(=O)[C@H](C)NC(=O)[C@H](CCCCn4cc(CO[C@@H]5O[C@H](CO)[C@H](O)[C@H](O)[C@H]5O)nn4)NC(=O)CNC(=O)[C@@H]4CCCN4C(=O)[C@H](CCCCn4cc(CO[C@@H]5O[C@H](CO)[C@H](O)[C@H](O)[C@H]5O)nn4)NC3=O)NC(=O)CNC(=O)[C@@H]3CCCN3C(=O)[C@H](CCCCNC(=O)CO/N=C/C(=O)NCCCC[C@@H]3NC(=O)[C@H](CCCCn4cc(CO[C@@H]5O[C@H](CO)[C@H](O)[C@H](O)[C@H]5O)nn4)NC(=O)CNC(=O)[C@@H]4CCCN4C(=O)[C@H](CCCCn4cc(CO[C@@H]5O[C@H](CO)[C@H](O)[C@H](O)[C@H]5O)nn4)NC(=O)[C@H](C)NC(=O)[C@H](CCCCn4cc(CO[C@@H]5O[C@H](CO)[C@H](O)[C@H](O)[C@H]5O)nn4)NC(=O)CNC(=O)[C@@H]4CCCN4C(=O)[C@H](CCCCn4cc(CO[C@@H]5O[C@H](CO)[C@H](O)[C@H](O)[C@H]5O)nn4)NC3=O)NC(=O)[C@H](C)NC2=O)NC(=O)[C@H](CCCCNC(=O)/C=N/O[C@@H]2O[C@@H](C)[C@@H](O)[C@@H](O)[C@@H]2O)NC(=O)CNC(=O)[C@@H]2CCCN2C(=O)[C@H](CCCCNC(=O)/C=N/O[C@@H]2O[C@@H](C)[C@@H](O)[C@@H](O)[C@@H]2O)NC1=O [Compound 11],Kd,[1],34 ± 7 nM
same,–ΔH (binding enthalpy),[1],51.6 to 58.1 kcal/mol
same,"n (stoichiometry, glycocluster molecules per lectin monomer)",[1],0.16
same,–ΔG,[1],10.2 kcal/mol
same,–ΔH,[1],55.59 ± 0.48 kcal/mol
same,−TΔS,[1],45.39 kcal/mol
same,binding to LecA in words,[1],maintain their binding potency
same,α (relative potency compared to the monovalent compound),[1],"4,412"
same,β (relative potency per sugar unit),[1],551
same,–ΔH (binding enthalpy),[2]; ITC,50.7 kcal/mol
same,"n (stoichiometry, glycocluster molecules per lectin monomer)",[2]; ITC,0.10
same,–ΔG,[2]; ITC,9.61 kcal/mol
same,–ΔH,[2]; ITC,50.69 ± 1.4 kcal/mol
same,−TΔS,[2]; ITC,41.09 kcal/mol
same,Kd,[2]; ITC,92 ± 14 nM
same,binding to LecB in words,[2],maintain their binding potency
same,α (relative potency compared to the monovalent compound),[2]; relative to αFuc-OMe,4.7
C[C@@H]1NC(=O)[C@H](CCCCNC(=O)/C=N/O[C@@H]2O[C@H](CO)[C@H](O)[C@H](O)[C@H]2O)NC(=O)CNC(=O)[C@@H]2CCCN2C(=O)[C@H](CCCCNC(=O)/C=N/O[C@@H]2O[C@H](CO)[C@H](O)[C@H](O)[C@H]2O)NC(=O)[C@H](CCCCNC(=O)CO/N=C/C(=O)NCCCC[C@@H]2NC(=O)CNC(=O)[C@@H]3CCCN3C(=O)[C@H](CCCCNC(=O)/C=N/OCC(=O)NCCCC[C@@H]3NC(=O)[C@H](CCCCNC(=O)/C=N/O[C@@H]4O[C@H](CO)[C@H](O)[C@H](O)[C@H]4O)NC(=O)CNC(=O)[C@@H]4CCCN4C(=O)[C@H](CCCCNC(=O)/C=N/O[C@@H]4O[C@H](CO)[C@H](O)[C@H](O)[C@H]4O)NC(=O)[C@H](C)NC(=O)[C@H](CCCCNC(=O)/C=N/O[C@@H]4O[C@H](CO)[C@H](O)[C@H](O)[C@H]4O)NC(=O)CNC(=O)[C@@H]4CCCN4C(=O)[C@H](CCCCNC(=O)/C=N/O[C@@H]4O[C@H](CO)[C@H](O)[C@H](O)[C@H]4O)NC3=O)NC(=O)[C@H](CCCCN)NC(=O)[C@H](CCCCNC(=O)CO/N=C/C(=O)NCCCC[C@@H]3NC(=O)[C@H](CCCCn4cc(CO[C@@H]5O[C@@H](C)[C@@H](O)[C@@H](O)[C@@H]5O)nn4)NC(=O)CNC(=O)[C@@H]4CCCN4C(=O)[C@H](CCCCn4cc(CO[C@@H]5O[C@@H](C)[C@@H](O)[C@@H](O)[C@@H]5O)nn4)NC(=O)[C@H](C)NC(=O)[C@H](CCCCn4cc(CO[C@@H]5O[C@@H](C)[C@@H](O)[C@@H](O)[C@@H]5O)nn4)NC(=O)CNC(=O)[C@@H]4CCCN4C(=O)[C@H](CCCCn4cc(CO[C@@H]5O[C@@H](C)[C@@H](O)[C@@H](O)[C@@H]5O)nn4)NC3=O)NC(=O)CNC(=O)[C@@H]3CCCN3C(=O)[C@H](CCCCNC(=O)CO/N=C/C(=O)NCCCC[C@@H]3NC(=O)[C@H](CCCCn4cc(CO[C@@H]5O[C@@H](C)[C@@H](O)[C@@H](O)[C@@H]5O)nn4)NC(=O)CNC(=O)[C@@H]4CCCN4C(=O)[C@H](CCCCn4cc(CO[C@@H]5O[C@@H](C)[C@@H](O)[C@@H](O)[C@@H]5O)nn4)NC(=O)[C@H](C)NC(=O)[C@H](CCCCn4cc(CO[C@@H]5O[C@@H](C)[C@@H](O)[C@@H](O)[C@@H]5O)nn4)NC(=O)CNC(=O)[C@@H]4CCCN4C(=O)[C@H](CCCCn4cc(CO[C@@H]5O[C@@H](C)[C@@H](O)[C@@H](O)[C@@H]5O)nn4)NC3=O)NC(=O)[C@H](C)NC2=O)NC(=O)[C@H](CCCCNC(=O)/C=N/O[C@@H]2O[C@H](CO)[C@H](O)[C@H](O)[C@H]2O)NC(=O)CNC(=O)[C@@H]2CCCN2C(=O)[C@H](CCCCNC(=O)/C=N/O[C@@H]2O[C@H](CO)[C@H](O)[C@H](O)[C@H]2O)NC1=O [Compound 13],Kd,[1],35 ± 0.1 nM
same,–ΔH (binding enthalpy),[1],51.6 to 58.1 kcal/mol
same,"n (stoichiometry, glycocluster molecules per lectin monomer)",[1],0.16
same,–ΔG,[1],10.2 kcal/mol
same,–ΔH,[1],51.6 ± 0.72 kcal/mol
same,−TΔS,[1],41.49 kcal/mol
same,binding to LecA in words,[1],maintain their binding potency
same,α (relative potency compared to the monovalent compound),[1],"4,286"
same,β (relative potency per sugar unit),[1],536
same,"n (stoichiometry, glycocluster molecules per lectin monomer)",[2]; ITC,0.10
same,–ΔG,[2]; ITC,9.44 kcal/mol
same,–ΔH,[2]; ITC,43.71 ± 1.9 kcal/mol
same,−TΔS,[2]; ITC,34.25 kcal/mol
same,Kd,[2]; ITC,118 ± 15 nM
same,binding to LecB in words,[2],maintain their binding potency
same,α (relative potency compared to the monovalent compound),[2]; relative to αFuc-OMe,3.6
same,β (relative potency per sugar unit),[2]; relative to αFuc-OMe,0.5
